Values after ≈ are worked out from the molar mass of the structure shown. Active and inactive are the calls of the source. The calls are words filed in the database; no cut-off is given here.
Assays:
Substance-P receptor = Substance-P receptor (Homo sapiens, UniProt P25103); assay: Antagonist activity at human NK1 receptor expressed in CHO cells assessed as inhibition of SP-induced intracellular Ca2+ increase by Fura-2 assay; format: functional, cell-based; conditions: read-out: pA2 (converted)
Substance-K receptor = target: T1, Substance-K receptor (Homo sapiens, UniProt P21452); assay: Antagonist activity at human NK2 receptor expressed in CHO cells assessed as inhibition of Neurokinin A-induced increase in intracellular Ca2+ increase by Fura-2 assay; format: functional, cell-based; conditions: read-out: pA2 (converted)
T1 sequence (P21452 whole entry): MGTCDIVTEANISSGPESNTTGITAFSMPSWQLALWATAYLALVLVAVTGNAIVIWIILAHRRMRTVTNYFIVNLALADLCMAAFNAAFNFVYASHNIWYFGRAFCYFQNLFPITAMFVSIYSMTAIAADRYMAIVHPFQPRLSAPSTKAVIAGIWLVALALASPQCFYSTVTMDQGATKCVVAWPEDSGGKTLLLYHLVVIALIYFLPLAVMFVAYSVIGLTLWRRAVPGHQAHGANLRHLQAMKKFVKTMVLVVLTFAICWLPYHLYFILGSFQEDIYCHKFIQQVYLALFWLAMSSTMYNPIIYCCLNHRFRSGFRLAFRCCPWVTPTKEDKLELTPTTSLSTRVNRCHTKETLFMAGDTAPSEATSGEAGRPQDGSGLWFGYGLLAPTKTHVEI

Estrogen receptor = target: T2, Estrogen receptor (Homo sapiens, UniProt P03372)
T2 sequence (P03372 whole entry): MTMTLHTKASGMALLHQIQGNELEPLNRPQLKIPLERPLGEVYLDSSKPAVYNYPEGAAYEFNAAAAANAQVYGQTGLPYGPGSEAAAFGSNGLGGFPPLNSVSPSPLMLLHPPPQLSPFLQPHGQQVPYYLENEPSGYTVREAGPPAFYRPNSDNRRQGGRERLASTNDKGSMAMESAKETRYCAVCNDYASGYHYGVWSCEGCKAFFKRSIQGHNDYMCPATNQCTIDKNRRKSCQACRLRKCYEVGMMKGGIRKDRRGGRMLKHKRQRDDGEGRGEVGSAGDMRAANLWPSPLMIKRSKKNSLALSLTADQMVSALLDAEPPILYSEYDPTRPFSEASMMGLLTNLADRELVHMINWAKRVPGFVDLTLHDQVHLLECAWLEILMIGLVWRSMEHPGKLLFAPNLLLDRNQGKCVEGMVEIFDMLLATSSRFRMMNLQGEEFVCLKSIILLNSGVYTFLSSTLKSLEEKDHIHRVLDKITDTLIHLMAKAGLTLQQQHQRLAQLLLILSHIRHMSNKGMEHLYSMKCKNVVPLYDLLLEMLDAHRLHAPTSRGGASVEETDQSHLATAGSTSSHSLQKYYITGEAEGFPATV
Description: Agonist activity at estrogen receptor

[1] = Apparent permeability across human Caco2 cells; format: ADME, cell-based; conditions: Caco-2
Histamine H3 receptor [2] = target: Histamine H3 receptor (Rattus norvegicus, UniProt Q9QYN8); assay: Antagonist activity at rat histamine H3 receptor expressed in […] cells; format: functional, cell-based, SK-N-MC; conditions: read-out: pA2 (converted)
Histamine H3 receptor [3] = target: Histamine H3 receptor (Homo sapiens, UniProt Q9Y5N1); assay: Antagonist activity at human histamine H3 receptor expressed in […] cells; format: functional, cell-based, SK-N-MC; conditions: read-out: pA2 (converted)
Albumin = Albumin (Homo sapiens, UniProt P02768); assay: Binding affinity to human serum albumin; format: ADME; conditions: isolated protein
[4] = Half life in human liver microsomes; format: ADME, Microsome
[5] = system: Trypanosoma brucei rhodesiense; assay: Antitrypanosomal activity against Trypanosoma brucei rhodesiense; format: functional
Trypanosoma cruzi = assay: Antitrypanosomal activity against Trypanosoma cruzi; format: functional
Leishmania donovani = assay: Antileishmanial activity against Leishmania donovani; format: functional
[6] = Antioxidant activity assessed as inhibition of lipid peroxidation after 30 mins; format: functional
[7] = target: T3, Polyunsaturated fatty acid lipoxygenase ALOX15 (Oryctolagus cuniculus, UniProt P12530); assay: Inhibition of rabbit reticulocytes arachidonate 15-lipoxygenase
T3 sequence (P12530 whole entry): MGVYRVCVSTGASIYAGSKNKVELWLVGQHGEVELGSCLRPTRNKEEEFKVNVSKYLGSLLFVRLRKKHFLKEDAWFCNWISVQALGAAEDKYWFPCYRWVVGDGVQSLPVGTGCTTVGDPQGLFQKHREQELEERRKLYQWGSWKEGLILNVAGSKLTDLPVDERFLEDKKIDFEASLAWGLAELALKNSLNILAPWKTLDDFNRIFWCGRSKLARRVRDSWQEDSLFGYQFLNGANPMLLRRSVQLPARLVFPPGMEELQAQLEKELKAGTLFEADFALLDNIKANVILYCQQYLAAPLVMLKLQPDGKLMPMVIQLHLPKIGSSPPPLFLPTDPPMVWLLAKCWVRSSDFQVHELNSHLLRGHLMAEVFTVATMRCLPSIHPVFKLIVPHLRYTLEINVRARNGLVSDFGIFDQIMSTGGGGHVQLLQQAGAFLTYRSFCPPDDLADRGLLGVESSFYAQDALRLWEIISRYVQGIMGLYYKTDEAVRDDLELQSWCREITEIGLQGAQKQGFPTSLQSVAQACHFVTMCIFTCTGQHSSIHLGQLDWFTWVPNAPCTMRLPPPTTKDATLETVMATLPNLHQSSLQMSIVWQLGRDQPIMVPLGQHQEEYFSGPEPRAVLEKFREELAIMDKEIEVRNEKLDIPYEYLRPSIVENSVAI

Plasmodium falciparum = assay: Antiplasmodial activity against Plasmodium falciparum; format: functional
Pichia kudriavzevii = assay: Antifungal activity against Candida krusei at 32 ug/mL; format: functional, organism-based
[8] = system: Mycobacterium tuberculosis; assay: Antimycobacterial activity against Mycobacterium tuberculosis H37Rv ATCC 27294 by microplate alamar blue assay; format: functional
[9] = Inhibition of soybean arachidonate 15-lipoxygenase; set-up: species or system Glycine max
[10] = system: Mycobacterium tuberculosis; assay: Antimycobacterial activity against Mycobacterium tuberculosis H37Rv ATCC 27294 at 6.25 ug/mL by microplate alamar blue assay; format: functional
[11] = system: Mycobacterium tuberculosis; assay: Ratio MIC for ciprofloxacin to compound for Mycobacterium tuberculosis H37Rv by agar diffusion method; format: functional
[12] = system: Mycobacterium tuberculosis; assay: Ratio MIC for ethambutol to compound for Mycobacterium tuberculosis H37Rv by agar diffusion method; format: functional
[13] = system: Mycobacterium tuberculosis; assay: Antimycobacterial activity against Mycobacterium tuberculosis H37Rv by agar diffusion method; format: functional

Substance-P receptor, sequence (P25103 whole entry): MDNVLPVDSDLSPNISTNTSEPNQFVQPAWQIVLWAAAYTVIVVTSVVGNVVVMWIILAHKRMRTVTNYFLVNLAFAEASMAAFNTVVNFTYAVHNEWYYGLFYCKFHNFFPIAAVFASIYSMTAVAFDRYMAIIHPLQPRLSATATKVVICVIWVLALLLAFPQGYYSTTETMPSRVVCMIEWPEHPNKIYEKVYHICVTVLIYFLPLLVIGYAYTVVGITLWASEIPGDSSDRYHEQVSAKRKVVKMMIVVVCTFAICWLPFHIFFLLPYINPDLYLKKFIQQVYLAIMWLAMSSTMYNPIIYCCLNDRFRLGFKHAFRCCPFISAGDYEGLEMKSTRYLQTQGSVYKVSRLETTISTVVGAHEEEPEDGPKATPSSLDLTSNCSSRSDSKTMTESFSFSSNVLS
Histamine H3 receptor (Homo sapiens, UniProt Q9Y5N1), sequence (Q9Y5N1 whole entry): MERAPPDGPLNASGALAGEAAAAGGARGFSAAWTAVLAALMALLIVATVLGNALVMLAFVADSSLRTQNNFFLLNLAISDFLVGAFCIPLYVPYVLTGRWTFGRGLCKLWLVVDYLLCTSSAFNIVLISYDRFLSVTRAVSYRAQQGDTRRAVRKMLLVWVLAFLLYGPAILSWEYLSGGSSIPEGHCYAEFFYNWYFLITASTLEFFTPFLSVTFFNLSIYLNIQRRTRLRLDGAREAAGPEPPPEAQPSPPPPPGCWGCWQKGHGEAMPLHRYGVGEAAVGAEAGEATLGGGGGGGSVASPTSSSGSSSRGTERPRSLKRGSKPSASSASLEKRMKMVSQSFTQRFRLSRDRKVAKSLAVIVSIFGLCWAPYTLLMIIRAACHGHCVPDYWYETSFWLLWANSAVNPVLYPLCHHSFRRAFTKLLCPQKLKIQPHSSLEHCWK
Albumin, sequence (P02768 whole entry): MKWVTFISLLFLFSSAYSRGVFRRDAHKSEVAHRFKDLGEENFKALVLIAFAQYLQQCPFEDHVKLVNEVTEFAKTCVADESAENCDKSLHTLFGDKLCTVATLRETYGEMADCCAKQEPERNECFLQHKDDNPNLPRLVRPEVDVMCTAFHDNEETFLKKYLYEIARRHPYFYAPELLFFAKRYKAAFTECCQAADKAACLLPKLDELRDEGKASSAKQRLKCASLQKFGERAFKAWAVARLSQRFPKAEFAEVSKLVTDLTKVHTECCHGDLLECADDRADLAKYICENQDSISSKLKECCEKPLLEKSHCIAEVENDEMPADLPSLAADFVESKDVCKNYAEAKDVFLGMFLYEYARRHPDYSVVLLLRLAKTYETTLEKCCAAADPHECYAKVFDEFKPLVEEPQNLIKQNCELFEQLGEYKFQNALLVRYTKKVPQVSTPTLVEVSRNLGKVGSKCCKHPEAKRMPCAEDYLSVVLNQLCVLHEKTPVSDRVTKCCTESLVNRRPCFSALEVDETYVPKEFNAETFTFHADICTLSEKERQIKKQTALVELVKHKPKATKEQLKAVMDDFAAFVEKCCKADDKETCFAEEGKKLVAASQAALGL
Histamine H3 receptor (Rattus norvegicus, UniProt Q9QYN8), sequence (Q9QYN8 whole entry): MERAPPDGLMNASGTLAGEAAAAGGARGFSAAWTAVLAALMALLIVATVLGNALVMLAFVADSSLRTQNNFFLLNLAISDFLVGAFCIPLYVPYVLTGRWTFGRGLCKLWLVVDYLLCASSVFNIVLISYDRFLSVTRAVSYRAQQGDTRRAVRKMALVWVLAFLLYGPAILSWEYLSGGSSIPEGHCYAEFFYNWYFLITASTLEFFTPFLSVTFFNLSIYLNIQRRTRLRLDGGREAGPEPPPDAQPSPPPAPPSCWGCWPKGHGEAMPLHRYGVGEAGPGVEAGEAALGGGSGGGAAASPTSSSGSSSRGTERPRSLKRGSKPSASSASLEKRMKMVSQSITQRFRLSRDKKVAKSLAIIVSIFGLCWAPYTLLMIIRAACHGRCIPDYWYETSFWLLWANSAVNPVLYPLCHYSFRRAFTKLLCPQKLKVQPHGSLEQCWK

Molecule COC(=O)C1=C2CCC(C(=O)N[C@@H](CCc3c[nH]c4ccccc34)C(=O)N(C)Cc3ccccc3)N2C(=O)C(NC(=O)OCc2ccccc2)C1 (some centres undefined) has a Kb (Substance-P receptor) of 200 nM and a Kb (Substance-K receptor) of 200 nM.

CCc1c(-c2ccc(O)cc2)c2ccc3cccc1n32 showed an IC50 (Estrogen receptor) of 9.5 nM.

Molecule c1ccn2cc(-c3ccc(OCCCN4CCCCC4)cc3)cc2c1 has a Papp [1] of 14.1 ×10⁻⁶ cm/s, a Kb (Histamine H3 receptor [2]) of 19.5 nM and a Kb (Histamine H3 receptor [3]) of 3.16 nM. It also gave an Activity (Albumin) of 50% and a half-life [4] of 10 min.

With N#Cc1ccn2c(-c3ccccc3)c(-c3ccccc3)c(C(O)c3ccccc3)c2c1 (centres undefined) the MIC [5] was 12 µg/mL (≈ 30 µM), the MIC (Trypanosoma cruzi) was 3.2 µg/mL (≈ 7.99 µM) and the MIC (Leishmania donovani) was 2.3 µg/mL (≈ 5.74 µM). It also gave an IC50 [6] of 35.8 µM, an IC50 [7] of 48 µM and an MIC (Plasmodium falciparum) of 2.3 µg/mL (≈ 5.74 µM). The Activity (Pichia kudriavzevii) was “inactive”, the MIC [8] was 6.25 µg/mL (≈ 15.6 µM) and the IC50 [9] was 35 µM. The inhibition at 6.25 µg/mL [10] was 100%.

Molecule COC(=O)C1=C2CCC(C(=O)N[C@@H](CCc3c[nH]c4ccccc34)C(=O)N(C)Cc3ccccc3)N2C(=O)C(NC(C)=O)C1 (some centres undefined) has a Kb (Substance-P receptor) of 126 nM and a Kb (Substance-K receptor) of 631 nM.

Work on Cc1c(-c2ccc(OCCCN3CCCCC3)cc2)cc2ccccn12 yielded a half-life [4] of 54 min.

Work on CCOC(=O)c1c(-c2ccc(F)cc2)cc2c3ccccc3ccn12 yielded a Ratio [11] of 4.7, a Ratio [12] of 7.6 and an MIC [13] of 1 µM (≈ 0.333 µg/mL).

From ChEMBL document CHEMBL1914343, “Recent progress in synthesis and bioactivity studies of indolizines” (Eur J Med Chem, 2011)
